Source: patent US20230250066A1, “HERBICIDAL CINNOLINE DERIVATIVES” (SYNGENTA CROP PROTECTION AG, priority 2020, published 2023)

What was measured:
Type in all cases: in vivo
[1] = tested on: Setaria faberi (SETFA); experiment: Pre-emergence herbicidal test; conditions: 1000 g/ha, evaluated after 13 days
[2] = tested on: Amaranthus retoflexus (AMARE); experiment: Pre-emergence herbicidal test; conditions: 1000 g/ha, evaluated after 13 days
[3] = tested on: Echinochloa crus-galli (ECHCG); experiment: Pre-emergence herbicidal test; conditions: 1000 g/ha, evaluated after 13 days
[4] = tested on: Zea mays (ZEAMX); experiment: Pre-emergence herbicidal test; conditions: 1000 g/ha, evaluated after 13 days
[5] = tested on: Echinochloa crus-galli (ECHCG); experiment: Post-emergence herbicidal test; conditions: 1000 g/ha unless otherwise stated, evaluated after 13 days
How it was run: (§1)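 Scores on a five-point scale: 5=81-100%, 4=61-80%, 3=41-60%, 2=21-40%, 1=10-20%, 0=0% damage. These are assessed 13 days after spraying at 1000 g/ha unless stated.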

[6] = tested on: Setaria faberi (SETFA); experiment: Post-emergence herbicidal test; conditions: 1000 g/ha unless otherwise stated, evaluated after 13 days
How it was run: as §1

[7] = tested on: Ipomoea hederacea (IPOHE); experiment: Post-emergence herbicidal test; conditions: 1000 g/ha unless otherwise stated, evaluated after 13 days
How it was run: as §1

[8] = tested on: Zea mays (ZEAMX); experiment: Post-emergence herbicidal test; conditions: 1000 g/ha unless otherwise stated, evaluated after 13 days
How it was run: as §1

[9] = tested on: Amaranthus retoflexus (AMARE); experiment: Post-emergence herbicidal test; conditions: 1000 g/ha unless otherwise stated, evaluated after 13 days
How it was run: as §1

[10] = tested on: Abutilon theophrasti (ABUTH); experiment: Post-emergence herbicidal test; conditions: 1000 g/ha unless otherwise stated, evaluated after 13 days
How it was run: as §1

[11] = tested on: Abutilon theophrasti (ABUTH); experiment: Pre-emergence herbicidal test; conditions: 1000 g/ha, evaluated after 13 days
[12] = tested on: Ipomoea hederacea (IPOHE); experiment: Pre-emergence herbicidal test; conditions: 1000 g/ha, evaluated after 13 days

Row | SMILES | percentage damage caused to the plant, five-point scale, SETFA [1] | percentage damage caused to the plant, five-point scale, AMARE [2] | percentage damage caused to the plant, five-point scale, ECHCG [3] | percentage damage caused to the plant, five-point scale, ZEAMX [4] | percentage damage caused to the plant, ECHCG (five-point scale) [5] | percentage damage caused to the plant, SETFA (five-point scale) [6] | percentage damage caused to the plant, IPOHE (five-point scale) [7] | percentage damage caused to the plant, ZEAMX (five-point scale) [8] | percentage damage caused to the plant, AMARE (five-point scale) [9] | percentage damage caused to the plant, ABUTH (five-point scale) [10] | percentage damage caused to the plant, five-point scale, ABUTH [11] | percentage damage caused to the plant, five-point scale, IPOHE [12]
1 | CCOC(=O)c1nn(-c2ccc(OC(F)(F)F)cc2)c2cc(F)cc(SC)c2c1=O [Compound P54, ethyl 7-fluoro-5-methylsulfanyl-4-oxo-1-[4-(trifluoromethoxy)phenyl]cinnoline-3-carboxylate] | 2 (2=21-40%) | 1 (1=10-20%) | 2 (2=21-40%) | 0 (0=0%) | 0 (0=0%) | 0 (0=0%) | 1 (1=10-20%) | 1 (1=10-20%) | 2 (2=21-40%) | 1 (1=10-20%) | 1 (1=10-20%) | 0 (0=0%)
2 | CCOC(=O)c1nn(-c2ccc(OC(F)(F)F)cc2)c2cc(C#N)cc(SC)c2c1=O [Compound P55, ethyl 7-cyano-5-methylsulfanyl-4-oxo-1-[4-(trifluoromethoxy)phenyl]cinnoline-3-carboxylate] | 0 (0=0%) | 0 (0=0%) | 0 (0=0%) | 0 (0=0%) | 0 (0=0%) | 0 (0=0%) | 0 (0=0%) | 0 (0=0%) | 0 (0=0%) | 0 (0=0%) | 1 (1=10-20%) | 0 (0=0%)
3 | COC(=O)c1nn(-c2ccc(OC(F)(F)F)cc2)c2cc(OC)cc(SC)c2c1=O [Compound P56, methyl 7-methoxy-5-methylsulfanyl-4-oxo-1-[4-(trifluoromethoxy)phenyl]cinnoline-3-carboxylate] | 0 (0=0%) | 0 (0=0%) | 0 (0=0%) | 0 (0=0%) | 0 (0=0%) | 0 (0=0%) | 0 (0=0%) | 0 (0=0%) | 1 (1=10-20%) | 0 (0=0%) | 0 (0=0%) | 0 (0=0%)
4 | CCOC(=O)c1nn(-c2ccc(OC(F)(F)F)cc2)c2cc(OC)cc(SC)c2c1=O [Compound P57, ethyl 7-methoxy-5-methylsulfanyl-4-oxo-1-[4-(trifluoromethoxy)phenyl]cinnoline-3-carboxylate] | 0 (0=0%) | 0 (0=0%) | 0 (0=0%) | 0 (0=0%) | 1 (1=10-20%) | 1 (1=10-20%) | 0 (0=0%) | 0 (0=0%) | 0 (0=0%) | 0 (0=0%) | 0 (0=0%) | 0 (0=0%)
5 | CCCCCCOC(=O)c1nn(-c2ccc(OC(F)(F)F)cc2)c2cccc(S(C)(=O)=O)c2c1=O [Compound P59, hexyl 5-methylsulfonyl-4-oxo-1-[4-(trifluoromethoxy)phenyl]cinoline-3-carboxylate] | 4 (4=61-80%) | 2 (2=21-40%) | 3 (3=41-60%) | 3 (3=41-60%) | 4 (4=61-80%) | 4 (4=61-80%) | 3 (3=41-60%) | 2 (2=21-40%) | 1 (1=10-20%) | 1 (1=10-20%) | 3 (3=41-60%) | 2 (2=21-40%)
6 | CCCCCCCCCCCOC(=O)c1nn(-c2ccc(OC(F)(F)F)cc2)c2cccc(S(C)(=O)=O)c2c1=O [Compound P60, undecyl 5-methylsulfonyl-4-oxo-1-[4-(trifluoromethoxy)phenyl]cinnoline-3-carboxylate] | 4 (4=61-80%) | 1 (1=10-20%) | 1 (1=10-20%) | 1 (1=10-20%) | 1 (1=10-20%) | 1 (1=10-20%) | 1 (1=10-20%) | 1 (1=10-20%) | 1 (1=10-20%) | 1 (1=10-20%) | 1 (1=10-20%) | 0 (0=0%)
7 | CS(=O)(=O)c1cccc2c1c(=O)c(C(=O)OCCCl)nn2-c1ccc(OC(F)(F)F)cc1 [Compound P61, 2-chloroethyl 5-methylsulfonyl-4-oxo-1-[4-(trifluoromethoxy)phenyl]cinnoline-3-carboxylate] | 5 (5=81-100%) | 0 (0=0%) | 4 (4=61-80%) | 1 (1=10-20%) | 3 (3=41-60%) | 4 (4=61-80%) | 0 (0=0%) | 0 (0=0%) | 0 (0=0%) | 2 (2=21-40%) | 0 (0=0%) | 0 (0=0%)
8 | C#CCCCOC(=O)c1nn(-c2ccc(OC(F)(F)F)cc2)c2cccc(S(C)(=O)=O)c2c1=O [Compound P62, pent-4-ynyl 5-methylsulfonyl-4-oxo-1-[4-(trifluoromethoxy)phenyl]cinnoline-3-carboxylate] | 5 (5=81-100%) | 0 (0=0%) | 4 (4=61-80%) | 0 (0=0%) | 3 (3=41-60%) | 4 (4=61-80%) | 0 (0=0%) | 1 (1=10-20%) | 0 (0=0%) | 0 (0=0%) | 0 (0=0%) | 0 (0=0%)
